Assay results: patent US20260306525A1, “COMBINATION THERAPY GLUCOCORTICOIDS AND GINSENOSIDE” (FYTAGORAS B.V., priority 2023, published 2026)

Biological target: T1, GR (Homo sapiens, UniProt P04150)
T1 sequence (P04150 1-777): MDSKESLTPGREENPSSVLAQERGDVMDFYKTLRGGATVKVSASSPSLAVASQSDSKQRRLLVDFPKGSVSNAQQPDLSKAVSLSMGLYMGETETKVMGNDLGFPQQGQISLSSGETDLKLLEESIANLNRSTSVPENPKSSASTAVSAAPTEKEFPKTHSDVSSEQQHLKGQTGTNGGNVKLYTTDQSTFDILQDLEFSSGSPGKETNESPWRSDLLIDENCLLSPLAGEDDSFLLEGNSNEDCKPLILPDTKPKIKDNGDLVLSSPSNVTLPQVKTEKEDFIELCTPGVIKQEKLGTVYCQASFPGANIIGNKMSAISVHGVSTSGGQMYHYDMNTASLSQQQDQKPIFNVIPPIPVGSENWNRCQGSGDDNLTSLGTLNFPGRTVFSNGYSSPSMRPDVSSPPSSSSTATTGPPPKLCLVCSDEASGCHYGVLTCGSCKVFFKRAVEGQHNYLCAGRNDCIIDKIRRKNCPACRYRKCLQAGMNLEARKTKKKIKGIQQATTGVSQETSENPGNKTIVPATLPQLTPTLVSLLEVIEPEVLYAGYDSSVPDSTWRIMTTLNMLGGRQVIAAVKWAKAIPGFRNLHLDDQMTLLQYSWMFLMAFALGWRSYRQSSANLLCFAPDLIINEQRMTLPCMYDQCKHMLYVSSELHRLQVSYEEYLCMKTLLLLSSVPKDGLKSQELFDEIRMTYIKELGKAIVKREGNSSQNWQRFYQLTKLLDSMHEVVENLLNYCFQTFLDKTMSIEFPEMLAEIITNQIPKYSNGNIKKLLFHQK
Test: nuclear translocation of GR in HeLa cells (immunocytochemistry)
Format: cell-based
Parameters: nuclear translocation by immunocytochemistry (detected with anti-GR antibody D6H2L)
Settings: 6 h
Description: HeLa (human cervical cancer) cells were cultured in Dulbecco's Modified Eagle's (DMEM) High Glucose (HG) medium without phenol red supplemented with 10% Fetal Calf Serum (FCS) and 10% Glutamax (Sigma-Aldrich). The cells were maintained at 37° C. and 5% CO2. At 24 h before adding the treatment, the medium was replaced by DMEM HG with 10% charcoal-inactivated serum and 10% Glutamax (Sigma-Aldrich). The cells were exposed to short- and long-term compound treatments. […] Subsequently, TNF-α (10 ng/ml) was added along with the compound treatments for 6 h (this last step was not added in the actinomycin-D and cycloheximide experiments).
To determine the nuclear translocation of GR, immunocytochemistry on GR in Hela cells was performed. The cells were seeded in Nunc™ Lab-Tek™ II Chamber Slide™ System (ThermoFisher Scientific), and cultured in DMEM HG (without phenol red) supplemented with 10% charcoal inactivated serum and […] Glutamax (Sigma-Aldrich) for 48 h. […] In each experiment, 40 randomly selected cells from each treatment group were analyzed. The relative nuclear translocation of the GR was quantified by determining the integrated fluorescence intensity in the nucleus and the whole cell using Fiji ImageJ v1.53c, and these values were corrected for the mean background fluorescence. The percentage of nuclear translocation was assessed by determining the corrected density in the nucleus relative to the corrected density in the whole cell (in %).

SMILES | nuclear translocation level of GR (Rg1 5, 10 and 20 μM, vs vehicle) | nuclear translocation level of GR (beclomethasone 0.01 μM, vs vehicle) | nuclear translocation level of GR (beclomethasone 0.1 and 1 μM)
CC(C)=CCC[C@](C)(O[C@@H]1O[C@H](CO)[C@@H](O)[C@H](O)[C@H]1O)[C@H]1CC[C@]2(C)[C@@H]1[C@H](O)C[C@@H]1[C@@]3(C)CC[C@H](O)C(C)(C)[C@@H]3[C@@H](O[C@@H]3O[C@H](CO)[C@@H](O)[C@H](O)[C@H]3O)C[C@]12C [Rg1, (3β,6α, 12β)-3,12-Dihydroxydammar-24-ene-6,20-diyl bis-β-D-glucopyranoside] | only increased the translocation level compared to the vehicle treatment at 20 μM, still inducing only partial translocation |  | 
C[C@H]1C[C@H]2[C@@H]3CCC4=CC(=O)C=C[C@]4(C)[C@@]3(Cl)[C@@H](O)C[C@]2(C)[C@@]1(O)C(=O)CO [beclomethasone, reference compound] |  | significantly increased the translocation level compared to vehicle | maximal nuclear translocation was observed
